Reference: patent US9592234B2, “Methods and compositions for stimulating neurogenesis and inhibiting neuronal degeneration using isothiazolopyrimidinones” (Neuronascent, Inc., priority 2007, dated 2017)

Tests used:
[1] = test system: human neuronal progenitors cells; test: in vitro neurogenesis test; assay type: cell-based; settings: MAP-2 staining on day 11; differentiation media; vehicle 0.2% DMSO in DMEM/F12
Experimental: The in vitro neurogenesis test was performed using human neuronal progenitors cells. By way of background, the human neuronal progenitor cells can be cultured in media and have the potential to produce mature functional neurons. The neurogenesis factor in the culture media can promote the number of the progenitor cells which differentiate into neurons. Indeed, it is a widely accepted in vitro model to test a chemical's neurogenetic property.
Cells were obtained as human neuronal progenitors from a commercial source and were grown for up to three passages or at any time differentiated to potentially produce mature functional neurons in culture. Following two passages to expand the cells, progenitors were seeded into multi-well microplates and the media were changed to differentiation media (minus serum and mitogen). Within 2 hrs of this media change, a vehicle, positive control or test compound were added to each well. Also, they were added with every further media change (50% volume change every other day). Control wells contained cells and vehicle (0.2% DMSO in DMEM/F12). […]
The cells were stained using MAP-2, a neuronal marker, on day 11. Then, each test compound was assessed for the ability to promote an increase in neuron number and compared with the positive control, leukemia inhibitory factor (LIF).

[2] = test system: Human neurons; test: inhibition of neurodegeneration by hydrogen peroxide (Alamar Blue respiration); assay type: cell-based; settings: hydrogen peroxide 50 uM for up to 6 hrs, FIG. 1
Experimental: Dysfunctional neurons were initiated using any of the above agents or using hydrogen peroxide at 1-100 μM concentration. Using a dye that measures metabolic activity of the cells, such as MTT or ALAMARBLUE®, we determined the reduction of respiratory capacity of the cells, which indicated neuron dysfunction. The ability of neurogenic agents to inhibit hydrogen peroxide-induced reduction in cellular respiration was used as a measure of inhibition of neuronal dysfunction, a potential step that lead to degeneration.
Certain compounds were further analyzed to determine their ability to inhibit neurodegeneration by hydrogen peroxide. Human neurons are treated with hydrogen peroxide (50 uM) for up to 6 hrs and then neuronal loss is measured using Alamar Blue respiration.

Row | SMILES | Effects of compounds on the increase in the neuron numbers compared with the vehicle control, % of Control [1] | loss of respiration (neuronal loss) when added along with hydrogen peroxide [2]
1 | CCN1CCCC1Cn1cnc2c(-c3ccc(OC)cc3)nsc2c1=O (stereo not shown) [3-(4-Methoxyphenyl)-6-[(1-ethylpyrrolidin-2-yl)methyl]-isothiazolo[4,5-d]pyrimidin-7(6H)-one] | 107% | 
2 | CCN1CCCC1Cn1cnc2c(-c3ccc(OC)cc3)nsc2c1=O (stereo not shown) [NNI-A, 6-((1-ethylpyrrolidin-2-yl)methyl)-3-(4-methoxyphenyl)isothiazolo[4,5-d]pyrimidin-7(6H)-one] |  | less loss of respiration
3 | CCN1CCCC1Cn1cnc2c(-c3ccc(F)cc3)nsc2c1=O (stereo not shown) [NNI-B, 6-((1-ethylpyrrolidin-2-yl)methyl)-3-(4-fluorophenyl)isothiazolo[4,5-d]pyrimidin-7(6H)-one] |  | less loss of respiration
4 | COc1ccc(-c2nsc3c(=O)n(CCCN4CCOCC4)cnc23)cc1 [3-(4-Methoxyphenyl)-6-[3-(4-morpholinyl)propyl]-isothiazolo[4,5-d]pyrimidin-7-(6H)-one] | 115% | 
